Patent publication US20030013640A1, “Integrin linked kinase modulation of leukocyte trafficking” (priority 2001, published 2003)

What was measured:
neutrophils (PMN) [1] = conditions: mouse, in vivo; cited from earlier work
monocytes [2] = assay: MCP-1-induced monocyte accumulation in peritoneal cavity; assay type: in vivo; conditions: sc, 0.1 mg/kg per mouse s.c. 1 h prior to MCP-1
Experimental: Monocyte chemoattractant protein-1 (MCP-1) given i.p. (1 μg) induces a selective accumulation of monocytes which is maximal at the 6 h post-injection (between 1-3 million monocytes per mouse), above the mild effect of the vehicle (0.25 ml of sterile saline) alone. After MCP-1 injection, animals are killed by CO2 exposure, and cavities washed with 3 ml of sterile PBS supplemented with 3 mM EDTA. Cells in the lavage fluids are stained in Turk's solution and differential counting is performed using a light microscope by a scientist unaware of the experimental groups. Monocyte influx is also confirmed by staining with F4/80 and FACS analysis. The effects of ILK inhibitors are determined in groups pre-treated with various concentrations of ILK inhibitor in systemic administration doses in the range of 10-300 mg/kg, administered every 1-4 hours prior to the cytokine, and up to the time of euthanasia (timing dependent on pharmacokinetics of specific ILK inhibitor). […] The positive control is dexamethasone which produces approximately 50% inhibition at the dose of 0.1 mg/kg per mouse given s.c. 1 h prior to MCP-1.

neutrophils (PMN) [3] = assay: IL-1β-induced neutrophil accumulation in mouse dorsal air-pouch; assay type: in vivo; conditions: sc, given 2 h prior, 4 h, read-out: ED50 for inhibition of IL-1β-induced PMN migration
Experimental: Acute accumulation of neutrophils (PMN) into a specific tissue site is a hallmark of the inflammatory response, and can be reproduced in vivo in the mouse following IL-1β injection into a preformed s.c. dorsal air-pouch. This model has the advantage of a quick (maximal at 4 h) and intense (between 5 and 8 million PMN per animal) response (Perretti & Flower (1993) J. Immunol. 150:992-999).
Six-day-old air-pouches are formed on the back of mice by injection of 2.5 ml of air on day 0 and day 3. On day 6, 5 ng of murine recombinant IL-1β is injected into the air-pouch, or vehicle only, i.e. 0.5% carboxymethylcellulose in PBS. Cellular influx into the air-pouches is evaluated at the 4 h time-point, by killing animals by CO2 exposure, and washing the cavities with 2 ml of sterile PBS supplemented with 3 mM EDTA and 25 U/ml heparin. Cells in the lavage fluids are stained in Turk's solution and differential counting is done with a light microscope.
This model is not sensitive to indomethacin and BWA4C, but is sensitive to PAF antagonists, anti-adhesion molecule reagents, tachykinin NK1 antagonists, etc. The effects of ILK inhibitors are determined in groups pre-treated with various concentrations of ILK inhibitors in systemic administration doses in the range of 10-300 mg/kg, administered every 1-4 hours prior to the cytokine, and up to the time of euthanasia.

neutrophils (PMN) [4] = assay: Zymosan-induced PMN accumulation in mouse peritoneal cavity; assay type: in vivo
Experimental: (§1) Zymosan (an insoluble inflammogen derived from the yeast wall, Ajuebor et al. (1998) J. Leukoc. Biol. 63, 108-116) is injected i.p. in mice, control animals receive only sterile saline. Cellular influx into the peritoneal cavities is evaluated either at the 4 h time-point (for PMN) or at 24 h (for monocytes), by killing animals by CO2 exposure, and washing the cavities with 3 ml of sterile PBS supplemented with 3 mM EDTA and 25 U/ml heparin. Cells in the lavage fluids are stained in Turk's solution and differential counting is performed with a light microscope.
PMN influx ranges between 15-20 million cells per mouse, and is sensitive to anti-chemokine (i.e. antibodies to MCP-1) and anti-adhesion reagents (i.e. antibody to CD11b) as well as to more classical anti-inflammatory drugs, e.g. PAF antagonists; indomethacin, 5-lipoxygenase inhibitors, etc. The positive control is dexamethasone, which reduces zymosan-induced PMN influx with an approximate ED50 of 0.9 mg/kg s.c. (given 2 h prior to zymosan). The effects of ILK inhibitors are determined in groups pre-treated with various concentrations of ILK inhibitors, usually in systemic administration doses in the range of 10-300 mg/kg, and usually administered every 1-4 hours prior to the cytokine, and up to the time of euthanasia, (dependent on pharmacokinetics of specific ILK inhibitor).

[5] = tested on: leukocyte-endothelium interaction; assay: Intravital microscopy of IL-1β-inflamed mouse mesenteric vascular bed; assay type: in vivo; conditions: 0.5 mg/kg s.c. 1 hour prior to IL-1β
Experimental: Mice are injected i.p. with 20 ng mouse recombinant IL-1β and left at liberty until the beginning of the experiment. Control animals receive sterile saline alone (1 ml per rat i.p.). Animals are anaesthetised with Inactin™, shaved on the neck and abdominal areas, and a tracheotomy is performed to facilitate breathing during the experimentation. Cautery incisions are made along the abdominal line, the mesentery is exposed and placed on a viewing plexiglass stage.
The preparation is mounted on a Zeiss Axioskop and is then transilluminated with a 12-V, 100-W halogen light source. […] A video time-date generator projects the time, date and stopwatch function onto the monitor.
Particular care is taken to assure observation of the mesenteric vascular bed exactly 2 h after injection of the cytokine. Mesenteries are superfused with thermostated (37° C.) bicarbonate-buffered solution (pH=7.4, gassed with 5% CO2/95% N2) at a rate of 2 ml/min. Three to five randomly selected post-capillary venules (diameter between 20-40 μm; length of at least 100 μm) are observed for each rat. Off-line analysis is performed to quantify the extent of cell adhesion (the number of adherent leukocytes in 100 μm length vessel wall), and leukocyte emigration (the number of cells that had emigrated out of the vessel up to 50 μm, 50 to 100 μm and 100-150 μm away from the vessel wall in parallel with 100 μm vessel segments).
IL-1β produces an intense response (>20 adherent cells per 100 μm length) that is modulated in part by endogenous PAF, ICAM-1 and the chemokine CINC. Therefore, agents that interfere with these mediators are identified using this technique. The effects of ILK inhibitors are determined in groups pre-treated with various concentrations of ILK inhibitors, in systemic administration doses in the range of 10-300 mg/kg, and administered every 1-4 hours prior to the cytokine, and up to the 2 hours after (timing dependent on pharmacokinetics of specific ILK inhibitor). Pre-treatment with ILK inhibitors is expected to result in a significant decrease in the number of leucocytes that are recruited.
Mouse mesenteric vascular bed was inflamed with interleukin-1β. The anti-inflammatory properties of KP-401-A (an ILK inhibitor) were compared to dexamethasone (positive control) as determined by intravital microscopy. […]
Cell rolling was measured by white blood cell velocity. Cell adhesion was quantified by counting, for each vessel, the number of adherent neutrophils in a 100 μm length. Leukocyte emigration from the microcirculation into the tissue was quantified by counting the number of cells that had emigrated up to 50 μm away from the wall of the 100 μm vessel segments. […]

monocytes [6] = assay: Zymosan-induced monocyte accumulation in peritoneal cavity (24 h); assay type: in vivo; conditions: Mus musculus, sc, given 2 h prior to zymosan, 24 h time-point
Experimental: as §1
Monocyte accumulation at the 24 h time-point is in the order of 10-14 million cells per animal. The effect of known drugs on this parameter have not been well investigated, however it is sensitive to anti-chemokine therapy (i.e. antibodies to MCP-1) and to dexamethasone. The latter is the positive control with an approximate ED50 of 0.9 mg/kg s.c. (given 2 h prior to zymosan). The effects of ILK inhibitors are determined in groups pre-treated with various concentrations of ILK inhibitors, usually in systemic administration doses in the range of 10-300 mg/kg, and usually administered every 1-4 hours prior to the cytokine, and up to the 2 hours after (timing dependent on pharmacokinetics of specific ILK inhibitor).

neutrophils (PMN) [7] = conditions: classical anti-inflammatory drugs; cited from earlier work

| SMILES | sensitivity of IL-1β air-pouch model to the drug (neutrophils (PMN) [1]) | inhibition at 0.1 mg/kg (monocytes [2]) [%] | ED50 (neutrophils (PMN) [3]) [mg/kg] | ED50 (neutrophils (PMN) [4]; Mus musculus, Neutrophil, sc, given 2 h prior to zymosan, 4 h time-point, read-out: ED50 for reduction of zymosan-induced PMN influx) [mg/kg] | PMN Accumulation (× 10^6 cells) ± SE (neutrophils (PMN) [4]; dose 1.5 mg/kg s.c., 60 min prior to and 60 min following i.p. Zymosan 1 mg/mouse, measured 4 h later, mean ± SE, n = 5) | Adherent Cells (no. 100 μm) ([5]; 2 hours after IL-1β) | Emigrated Cells (no. 50 × 100 μm^2) ([5]; 2 hours after IL-1β) | Cell Flux (no. per min) ([5]; observed 2 hours after IL-1β) | Cell Rolling (VWBC) ([5]; white blood cell velocity, 2 hours after IL-1β) | ED50 (monocytes [6]) [mg/kg] | sensitivity of zymosan-induced PMN influx to the drug (neutrophils (PMN) [7]) |
| --- | --- | --- | --- | --- | --- | --- | --- | --- | --- | --- | --- |
| CC(=O)N(O)C/C=C/c1cccc(Oc2ccccc2)c1 [BWA4C] | not sensitive |  |  |  |  |  |  |  |  |  |  |
| C[C@@H]1C[C@H]2[C@@H]3CCC4=CC(=O)C=C[C@]4(C)[C@@]3(F)[C@@H](O)C[C@]2(C)[C@@]1(O)C(=O)CO [dexamethasone] |  | ~50 | ~0.15 | ~0.9 | 4.0 ± 0.79 × 10^6 cells | 1.4 ± 0.1 | 1.8 ± 0.3 | 7.0 ± 1.5 | 17 ± 2.5 | ~0.9 |  |
| COc1ccc2c(c1)c(CC(=O)O)c(C)n2C(=O)c1ccc(Cl)cc1 [indomethacin] | not sensitive |  |  |  |  |  |  |  |  |  | sensitive |
